Legend:
[1] = target: T1, rat B1R (bradykinin receptor 1) (Rattus norvegicus, UniProt P97583); test: FLIPR Ca2+ assay (Fluo-4) on CHO K1 cells stably transfected with the B1R gene of the rat (rB1R cells): % inhibition at 10 μM / IC50, agonist Des-Arg9-bradykinin; format: cell-based; details: for inhibition at 10 µM: CHO-K1, rat B1R
T1 construct: expressed in transfected cells; host or cells: CHO K1 cells
T1 sequence (P97583 1-337): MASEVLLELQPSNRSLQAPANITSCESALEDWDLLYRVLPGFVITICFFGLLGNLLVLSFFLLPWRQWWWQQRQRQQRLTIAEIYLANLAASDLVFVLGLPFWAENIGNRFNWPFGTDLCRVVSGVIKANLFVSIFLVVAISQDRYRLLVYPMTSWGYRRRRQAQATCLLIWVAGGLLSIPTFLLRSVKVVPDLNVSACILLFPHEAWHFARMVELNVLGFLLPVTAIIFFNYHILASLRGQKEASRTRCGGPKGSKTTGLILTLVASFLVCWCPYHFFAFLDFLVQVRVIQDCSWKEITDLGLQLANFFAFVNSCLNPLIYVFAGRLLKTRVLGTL
Outline: (§1)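 Cells were Fluo-4-loaded, then test compound (10 μM, or a concentration series for IC50) was preincubated 10–20 min before agonist challenge at EC80: Lys-Des-Arg9-bradykinin for hB1R, Des-Arg9-bradykinin for rB1R. Peak Ca2+ fluorescence (ex 488/em 540 nm) gave % inhibition versus maximal achievable inhibition.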

[2] = target: T2, human B1R (bradykinin receptor 1) (Homo sapiens, UniProt P46663); test: FLIPR Ca2+ assay (Fluo-4) on CHO K1 cells stably transfected with the human B1R gene (hB1R cells): % inhibition at 10 μM / IC50, agonist Lys-Des-Arg9-bradykinin; format: cell-based; details: for inhibition at 10 µM: CHO-K1, human B1R
T2 construct: expressed in transfected cells; host or cells: CHO K1 cells
T2 sequence (P46663 1-353): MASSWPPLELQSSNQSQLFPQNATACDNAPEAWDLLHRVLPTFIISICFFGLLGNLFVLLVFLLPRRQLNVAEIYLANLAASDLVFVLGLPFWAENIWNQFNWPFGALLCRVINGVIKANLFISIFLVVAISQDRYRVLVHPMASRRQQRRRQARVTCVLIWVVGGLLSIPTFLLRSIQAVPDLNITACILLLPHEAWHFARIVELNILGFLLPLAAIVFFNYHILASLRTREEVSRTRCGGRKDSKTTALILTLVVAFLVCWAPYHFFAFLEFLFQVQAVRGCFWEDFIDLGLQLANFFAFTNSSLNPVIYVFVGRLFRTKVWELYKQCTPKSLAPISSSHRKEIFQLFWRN
Outline: as §1

Row | Compound | inhibition at 10 µM [1] | inhibition at 10 µM [2] | % Inhibition (rat B1R) at 10 μM ([1]; rat B1R) | % Inhibition (human B1R) at 10 μM ([2]; human B1R)
1 | O=C(NC1CCc2ccc(C(=O)N3CCC4(CCN(C(=O)Cc5ccc(Cl)cc5)CC4)C3)cc21)c1ccccc1Cl (stereo not drawn) [IND_CC-577, 2-Chloro-N-[6-[8-[2-(4-chlorophenyl)-acetyl]-2,8-diazaspiro[4.5]decane-2-carbonyl]-2,3-dihydro-1H-inden-1-yl]-benzamide] | 96% | 21% | – | –
2 | O=C(NC1CCc2ccc(C(=O)N3CCC4(CC3)CCN(c3ccncc3)CC4)cc21)c1ccccc1Cl (stereo not drawn) [IND_CC-273, 2-Chloro-N-[6-(9-pyridin-4-yl-3,9-diazaspiro[5.5]undecane-3-carbonyl)-2,3-dihydro-1H-inden-1-yl]-benzamide] | 106% | 99% | – | –
3 | O=C(NCc1ccccc1Cl)NC1CCc2ccc(C(=O)N3CCC4(CC3)CCN(c3ccncc3)C4)cc21 (stereo not drawn) [Ind_CC-048, 1-[(2-chlorophenyl)-methyl]-3-[6-(2-pyridin-4-yl-2,8-diazaspiro[4.5]decane-8-carbonyl)-2,3-dihydro-1H-inden-1-yl]-urea] | 88% | 98% | – | –
4 | O=C(NC1CCc2ccc(C(=O)N3CCC4(CCN(c5ccncc5)CC4)C3)cc21)c1c(F)cccc1Cl (stereo not drawn) [IND_CC-280, 2-Chloro-6-fluoro-N-[6-(8-pyridin-4-yl-2,8-diazaspiro[4.5]decane-2-carbonyl)-2,3-dihydro-1H-inden-1-yl]-benzamide] | 108% | 100% | – | –
5 | CN(C(=O)c1ccccc1Cl)C1CCc2ccc(C(=O)N3CCC4(CC3)CCN(c3ccncc3)C4)cc21 (stereo not drawn) [Ind_CC-112, 2-chloro-N-methyl-N-[6-(2-pyridin-4-yl-2,8-diazaspiro[4.5]decane-8-carbonyl)-2,3-dihydro-1H-inden-1-yl]-benzamide] | 104% | 100% | – | –
6 | CC1(C)CC(NC(=O)c2c(F)cccc2Cl)c2cc(C(=O)N3CCC4(CC3)CCN(c3ccncc3)CC4)ccc21 (stereo not drawn) [IND_CC-279, 2-Chloro-N-[3,3-dimethyl-6-(3-pyridin-4-yl-3,9-diazaspiro[5.5]undecane-9-carbonyl)-1,2-dihydro-inden-1-yl]-6-fluoro-benzamide] | 106% | 100% | – | –
7 | O=C(NC1CCc2ccc(C(=O)N3CCC4(CC3)CCN(c3ccncc3)CC4)cc21)c1cc(Cl)ccc1Cl (stereo not drawn) [IND_CC-207, 2,5-Dichloro-N-[6-(9-pyridin-4-yl-3,9-diazaspiro[5.5]undecane-3-carbonyl)-2,3-dihydro-1H-inden-1-yl]-benzamide] | 101% | 98% | – | –
8 | O=C(Nc1ccc(Cl)c(Cl)c1)NC1CCc2ccc(C(=O)N3CCC4(CCN(c5ccncc5)CC4)C3)cc21 (stereo not drawn) [Ind_CC-085] | – | – | 77% | 91%
9 | Cc1cc(OC(F)(F)F)ccc1C(=O)N(C)C1CCc2ccc(C(=O)N3CCC4(CC3)CCN(c3ccncc3)CC4)cc21 (stereo not drawn) [IND_CC-299, N,2-Dimethyl-N-[6-(9-pyridin-4-yl-3,9-diazaspiro[5.5]undecane-3-carbonyl)-2,3-dihydro-1H-inden-1-yl]-4-(trifluoromethyloxy)-benzamide] | 106% | 27% | – | –
10 | CN(C(=O)Cc1ccccc1Cl)C1CCc2ccc(C(=O)N3CCC4(CC3)CCN(c3ccncc3)CC4)cc21 (stereo not drawn) [Ind_CC-019, 2-(2-chlorophenyl)-N-methyl-N-[6-(9-pyridin-4-yl-3,9-diazaspiro[5.5]undecane-3-carbonyl)-2,3-dihydro-1H-inden-1-yl]-acetamide] | 95% | 99% | – | –
11 | CC1(C)Cc2ccc(C(=O)N3CCC4(CC3)CCN(c3ccncc3)CC4)cc2C1NC(=O)c1ccc(Cl)s1 (stereo not drawn) [Ind_CC-066, 5-chloro-N-[2,2-dimethyl-6-(9-pyridin-4-yl-3,9-diazaspiro[5.5]undecane-3-carbonyl)-1,3-dihydro-inden-1-yl]-thiophene-2-carboxylic acid amide] | 98% | 82% | – | –
12 | CC1(C)CC(NS(=O)(=O)Cc2ccccc2C(F)(F)F)c2cc(C(=O)N3CCC4(CC3)CCN(c3ccncc3)CC4)ccc21 (stereo not drawn) [IND_CC-256, N-[3,3-Dimethyl-6-(3-pyridin-4-yl-3,9-diazaspiro[5.5]undecane-9-carbonyl)-1,2-dihydro-inden-1-yl]-1-[2-(trifluoromethyl)-phenyl]-methanesulfonic acid amide] | 100% | 99% | – | –
13 | CN(C(=O)c1ccccc1Cl)C1CCc2ccc(C(=O)N3CCC4(CC3)CCN(c3ccncc3)CC4)cc21 (stereo not drawn) [Ind_CC-106, 2-chloro-N-methyl-N-[6-(9-pyridin-4-yl-3,9-diazaspiro[5.5]undecane-3-carbonyl)-2,3-dihydro-1H-inden-1-yl]-benzamide] | 100% | 100% | – | –
14 | O=C(NC1CCc2ccc(C(=O)N3CCC4(CC3)CCN(c3ccncc3)C4)cc21)c1cccc(Cl)c1Cl (stereo not drawn) [IND_CC-267, 2,3-Dichloro-N-[6-(2-pyridin-4-yl-2,8-diazaspiro[4.5]decane-8-carbonyl)-2,3-dihydro-1H-inden-1-yl]-benzamide] | 106% | 86% | – | –
15 | Cc1ccc(F)c(C(=O)NC2CCc3ccc(C(=O)N4CCC5(CC4)CCN(c4ccncc4)CC5)cc32)c1Cl (stereo not drawn) [IND_CC-214, 2-Chloro-6-fluoro-3-methyl-N-[6-(9-pyridin-4-yl-3,9-diazaspiro[5.5]undecane-3-carbonyl)-2,3-dihydro-1H-inden-1-yl]-benzamide] | 102% | 83% | – | –

Next, values leading:

Row | inhibition at 10 µM [1] | inhibition at 10 µM [2] | % Inhibition (rat B1R) at 10 μM ([1]; rat B1R) | % Inhibition (human B1R) at 10 μM ([2]; human B1R) | Compound
16 | 55% | 96% | – | – | O=C(c1cccc2c1CC[C@@H]2N1Cc2cccc(Cl)c2C1=O)N1CCC2(CCN(c3ccncc3)CC2)C1 [Example H-168, 7-Chloro-2-[(1S)-4-(8-pyridin-4-yl-3,8-diazaspiro[4.5]decane-3-carbonyl)-2,3-dihydro-1H-inden-1-yl]-2,3-dihydro-isoindol-1-one]
17 | 98% | 100% | – | – | O=C(N[C@@H]1CCc2ccc(C(=O)N3CCC4(CCN(c5ccncc5)CC4)C3)cc21)c1cccc(Cl)c1Cl [Example H-94, 2,3-Dichloro-N-[(1R)-6-(8-pyridin-4-yl-3,8-diazaspiro[4.5]decane-3-carbonyl)-2,3-dihydro-1H-inden-1-yl]-benzamide]
18 | 108% | 72% | – | – | O=C(N[C@@H]1CCOc2cc(C(F)(F)F)c(C(=O)N3CCC4(CCN(c5ccncc5)CC4)C3)cc21)c1ccccc1Cl [Example H-107, 2-Chloro-N-[(4R)-6-(8-pyridin-4-yl-3,8-diazaspiro[4.5]decane-3-carbonyl)-7-(trifluoromethyl)-3,4-dihydro-2H-chromen-4-yl]-benzamide]
19 | 101% | 100% | – | – | O=C(c1ccc2c(c1)[C@H](NC(=O)C1(c3ccccc3Cl)CC1)CC2)N1CCC2(CCN(c3ccncc3)CC2)C1 [Example H-148, 1-(2-Chlorophenyl)-N-[(1R)-6-(8-pyridin-4-yl-3,8-diazaspiro[4.5]decane-3-carbonyl)-2,3-dihydro-1H-inden-1-yl]-cyclopropane-1-carboxylic acid amide]
20 | 102% | 100% | – | – | CC1(C)CC(NC(=O)c2ccccc2Cl)c2cc(C(=O)N3CCC4(CCN(c5ccncc5)CC4)C3)ccc21 (stereo not drawn) [Example H-132, 2-Chloro-N-[3,3-dimethyl-6-(8-pyridin-4-yl-3,8-diazaspiro[4.5]decane-3-carbonyl)-1,2-dihydro-inden-1-yl]-benzamide]
21 | 103% | 100% | – | – | O=C(N[C@@H]1CCc2ccc(C(=O)N3CCC4(CC3)CCN(c3ccncc3)CC4)cc21)c1c(Cl)cccc1C(F)(F)F [Example H-85, 2-Chloro-N-[(1R)-6-(9-pyridin-4-yl-3,9-diazaspiro[5.5]undecane-3-carbonyl]-2,3-dihydro-1H-inden-1-yl]-6-(trilfuoromethyl)-benzamide]
22 | 102% | 100% | – | – | CC(C)(C(=O)N[C@@H]1CCc2ccc(C(=O)N3CCC4(CCN(c5ccncc5)CC4)C3)cc21)c1ccccc1Cl [Example H-146, 2-(2-Chlorophenyl)-2-methyl-N-[(1R)-6-(8-pyridin-4-yl-3,8-diazaspiro[4.5]decane-3-carbonyl)-2,3-dihydro-1H-inden-1-yl]-propionamide]
23 | 102% | 100% | – | – | O=C(N[C@@H]1CCc2ccc(C(=O)N3CC4(CCN(c5ccncc5)CC4)C3)cc21)c1ccccc1Cl [Example H-27, 2-chloro-N-[(1R)-6-(7-pyridin-4-yl-2,7-diazaspiro[3.5]nonane-2-carbonyl)-2,3-dihydro-1H-inden-1-yl]-benzamide]
24 | 36% | 38% | – | – | O=C(NC1CCc2ccc(C(=O)N3CCC4(CCC(O)(c5ccncc5)CC4)C3)cc21)c1ccccc1Cl (stereo not drawn) [Example H-128, 2-Chloro-N-[6-(8-hydroxy-8-pyridin-4-yl-3-azaspiro[4.5]decane-3-carbonyl)-2,3-dihydro-1H-inden-1-yl]-benzamide]
